Ki data for two compounds are collected here from ChEMBL document CHEMBL1275264, “The GABA(A) receptor as a target for photochromic molecules” (Bioorg Med Chem, 2010).

What is called Ki is the dissociation constant of the complex between target and ligand, obtained from inhibition or displacement.

Test [1] deals with GABA A receptor alpha-4/beta-3/gamma-2 (Homo sapiens, UniProt P18507+P28472+P48169). In words: Binding affinity to human recombinant GABA alpha-4-beta-3-gamma-2 receptor. The format is protein-complex assay.
Sequence of GABA A receptor alpha-4/beta-3/gamma-2 (P48169 whole entry, one chain of several): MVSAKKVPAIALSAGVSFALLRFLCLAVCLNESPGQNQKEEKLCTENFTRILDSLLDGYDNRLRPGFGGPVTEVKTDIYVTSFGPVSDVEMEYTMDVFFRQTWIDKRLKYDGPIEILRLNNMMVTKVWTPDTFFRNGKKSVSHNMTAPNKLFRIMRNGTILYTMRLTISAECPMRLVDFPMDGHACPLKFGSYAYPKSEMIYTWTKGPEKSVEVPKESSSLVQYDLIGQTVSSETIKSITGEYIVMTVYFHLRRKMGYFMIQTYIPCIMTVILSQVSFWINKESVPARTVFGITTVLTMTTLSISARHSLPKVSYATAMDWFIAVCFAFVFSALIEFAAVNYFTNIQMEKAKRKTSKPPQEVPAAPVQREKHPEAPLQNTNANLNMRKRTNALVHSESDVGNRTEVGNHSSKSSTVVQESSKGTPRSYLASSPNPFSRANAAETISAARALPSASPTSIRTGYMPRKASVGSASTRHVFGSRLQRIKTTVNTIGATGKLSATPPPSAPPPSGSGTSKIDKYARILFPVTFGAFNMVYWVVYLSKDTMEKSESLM
For test [2], the target named is T1, GABA-A receptor; alpha-5/beta-3/gamma-2 (Homo sapiens, UniProt P18507+P28472+P31644).
T1 sequence (P18507 whole entry): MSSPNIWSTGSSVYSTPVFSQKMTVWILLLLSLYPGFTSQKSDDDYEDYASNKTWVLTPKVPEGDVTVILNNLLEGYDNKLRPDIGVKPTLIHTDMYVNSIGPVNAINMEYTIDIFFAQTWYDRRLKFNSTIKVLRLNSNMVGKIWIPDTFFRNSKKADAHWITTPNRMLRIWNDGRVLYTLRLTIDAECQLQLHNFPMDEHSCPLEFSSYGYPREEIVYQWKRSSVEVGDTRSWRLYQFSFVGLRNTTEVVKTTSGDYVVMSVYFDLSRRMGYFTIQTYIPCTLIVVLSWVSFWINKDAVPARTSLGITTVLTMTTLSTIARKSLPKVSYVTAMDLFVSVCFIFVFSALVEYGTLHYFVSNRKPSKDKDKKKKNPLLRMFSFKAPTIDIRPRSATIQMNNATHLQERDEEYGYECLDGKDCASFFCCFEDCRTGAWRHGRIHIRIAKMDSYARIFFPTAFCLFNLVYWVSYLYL
T1 sequence (P28472 whole entry): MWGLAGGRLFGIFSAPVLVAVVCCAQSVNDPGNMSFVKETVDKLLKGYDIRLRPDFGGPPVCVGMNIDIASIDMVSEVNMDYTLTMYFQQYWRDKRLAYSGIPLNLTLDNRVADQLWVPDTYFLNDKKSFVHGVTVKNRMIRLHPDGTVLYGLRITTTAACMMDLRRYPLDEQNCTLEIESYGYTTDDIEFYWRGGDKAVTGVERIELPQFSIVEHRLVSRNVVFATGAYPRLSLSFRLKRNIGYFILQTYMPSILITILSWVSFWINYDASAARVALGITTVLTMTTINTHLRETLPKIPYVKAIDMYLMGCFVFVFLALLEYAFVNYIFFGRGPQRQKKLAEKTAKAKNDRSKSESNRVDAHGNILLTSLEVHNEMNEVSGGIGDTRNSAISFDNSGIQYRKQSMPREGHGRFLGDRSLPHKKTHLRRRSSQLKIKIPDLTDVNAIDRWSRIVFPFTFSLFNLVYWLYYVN
T1 sequence (P31644 whole entry): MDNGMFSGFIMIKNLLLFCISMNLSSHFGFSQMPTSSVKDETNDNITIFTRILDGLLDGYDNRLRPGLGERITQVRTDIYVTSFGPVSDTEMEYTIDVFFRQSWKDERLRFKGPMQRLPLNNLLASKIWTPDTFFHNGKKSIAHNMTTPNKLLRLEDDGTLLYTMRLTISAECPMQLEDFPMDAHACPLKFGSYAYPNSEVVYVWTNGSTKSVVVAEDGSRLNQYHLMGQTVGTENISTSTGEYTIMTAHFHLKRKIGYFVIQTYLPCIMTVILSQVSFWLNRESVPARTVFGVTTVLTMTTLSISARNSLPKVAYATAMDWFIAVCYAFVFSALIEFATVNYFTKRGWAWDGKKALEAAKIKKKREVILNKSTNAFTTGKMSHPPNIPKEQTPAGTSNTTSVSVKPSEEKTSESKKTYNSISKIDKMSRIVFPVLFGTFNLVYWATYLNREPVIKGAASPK
In words: Binding affinity to human recombinant GABA alpha-5-beta-3-gamma-2 receptor. The format is protein-complex assay.

As for `CC(=O)c1ncn2c1CN(C)C(=O)c1cc(Cl)ccc1-2`, the figures for the Ki in test [1] and in test [2] were 2610 nM and 29500 nM, respectively.
For `COCc1ncn2c1CN(C)C(=O)c1cc(Cl)ccc1-2`, in that order: 38.8 nM and > 300 nM.
